# Measured values reported in ChEMBL document CHEMBL1201862, “PubChem BioAssay data set” (2004).
# Active and inactive are the calls of the source.
# Key:
# [1] = target: Eukaryotic translation initiation factor 4H (Homo sapiens, UniProt Q15056); experiment: eIF4H inhibition in translation initiation, SAR follow-up (AID 435011); assay type: functional
# [2] = target: Polyadenylate-binding protein 1 (Homo sapiens, UniProt P11940); experiment: PABP inhibition in translation initiation, SAR follow-up (AID 435018); assay type: functional
# [3] = target: Lysosomal acid glucosylceramidase (Homo sapiens, UniProt P04062); experiment: Dose response cell-based high throughput screening assay to identify enhancers of beta-glucosidase activity. [Related pubchem assays: 784 ]; assay type: functional
# [4] = target: Glyceraldehyde-3-phosphate dehydrogenase (Homo sapiens, UniProt P04406)
# [5] = target: Scavenger receptor class B member 1 (Mus musculus, UniProt Q61009); experiment: inhibitors of SR-BI mediated HDL lipid uptake, dose response, ldlA[mSR-BI] cells, fluorescence, cherry pick (AID 493194); assay type: functional, cell-based;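 note: cellular uptake of fluorescent DiI-labeled HDL measured as cell fluorescence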
# [6] = target: Intestinal-type alkaline phosphatase (Homo sapiens, UniProt P09923); experiment: Dose Response confirmation of uHTS hits from a small molecule inhibitors of human intestinal alkaline phosphatase via a luminescent assay. [Related pubchem assays (depositor defined):AID2544, AID2574]; assay type: functional
# [7] = target: T1, Sentrin-specific protease 1 (Homo sapiens, UniProt Q9P0U3); experiment: Dose response confirmation of small molecule inhibitors of the catalytic domain of the SUMO protease, SENP1 in a FRET assay.; assay type: functional; settings: read-out: IC50_Mean
# T1 sequence (Q9P0U3 whole entry): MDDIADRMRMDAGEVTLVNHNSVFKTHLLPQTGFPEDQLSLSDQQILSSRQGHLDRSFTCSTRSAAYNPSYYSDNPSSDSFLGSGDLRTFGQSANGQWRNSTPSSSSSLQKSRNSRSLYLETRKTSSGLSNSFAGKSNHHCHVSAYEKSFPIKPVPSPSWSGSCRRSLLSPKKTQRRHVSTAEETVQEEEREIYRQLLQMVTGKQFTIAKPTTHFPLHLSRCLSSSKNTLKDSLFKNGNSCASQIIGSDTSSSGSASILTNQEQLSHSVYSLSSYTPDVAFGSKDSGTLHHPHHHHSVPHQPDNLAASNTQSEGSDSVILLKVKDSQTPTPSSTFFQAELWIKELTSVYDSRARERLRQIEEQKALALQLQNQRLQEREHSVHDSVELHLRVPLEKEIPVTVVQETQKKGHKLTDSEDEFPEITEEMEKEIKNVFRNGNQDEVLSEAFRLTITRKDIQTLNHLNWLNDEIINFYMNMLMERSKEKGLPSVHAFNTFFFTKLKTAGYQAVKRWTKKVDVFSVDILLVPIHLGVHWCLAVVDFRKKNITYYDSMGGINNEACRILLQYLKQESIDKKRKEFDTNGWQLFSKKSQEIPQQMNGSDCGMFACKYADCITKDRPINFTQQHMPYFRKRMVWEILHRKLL
# [8] = target: T2, Corticotropin-releasing factor receptor 2/Corticotropin-releasing factor-binding protein (Homo sapiens, UniProt P24387+Q13324); experiment: activators of CRF receptor 2 with binding protein – uHTS hits, confirmation (AID 602473); assay type: functional; settings: read-out: EC50_Mean
# T2 sequence (Q13324 whole entry): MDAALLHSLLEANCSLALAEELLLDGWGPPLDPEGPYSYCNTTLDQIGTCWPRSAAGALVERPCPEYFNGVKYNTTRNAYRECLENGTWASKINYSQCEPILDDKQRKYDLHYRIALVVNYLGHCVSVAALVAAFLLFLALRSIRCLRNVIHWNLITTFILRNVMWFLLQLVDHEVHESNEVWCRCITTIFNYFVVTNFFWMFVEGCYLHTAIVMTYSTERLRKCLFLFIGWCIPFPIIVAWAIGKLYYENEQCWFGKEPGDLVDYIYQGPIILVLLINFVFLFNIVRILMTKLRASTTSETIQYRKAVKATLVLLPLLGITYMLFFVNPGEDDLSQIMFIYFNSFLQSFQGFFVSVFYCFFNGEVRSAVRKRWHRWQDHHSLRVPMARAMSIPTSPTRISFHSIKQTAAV
# T2 sequence (P24387 whole entry): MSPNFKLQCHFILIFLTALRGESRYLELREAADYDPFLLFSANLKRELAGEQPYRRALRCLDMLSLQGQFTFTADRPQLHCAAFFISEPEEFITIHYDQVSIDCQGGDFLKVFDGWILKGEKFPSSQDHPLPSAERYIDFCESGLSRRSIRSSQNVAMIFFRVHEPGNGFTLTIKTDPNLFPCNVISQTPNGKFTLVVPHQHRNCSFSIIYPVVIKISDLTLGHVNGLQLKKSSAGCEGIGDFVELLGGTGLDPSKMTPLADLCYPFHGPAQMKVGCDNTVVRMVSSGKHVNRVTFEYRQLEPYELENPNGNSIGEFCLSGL
# [9] = target: T1, Sentrin-specific protease 1; experiment: potency of human SENP1 inhibitors, dose response, biochemical, kinetic FRET (AID 651697); assay type: functional; settings: read-out: IC50_Mean
# [10] = target: T3, Eukaryotic translation initiation factor 2-alpha kinase 3 (Homo sapiens, UniProt Q9NZJ5); experiment: Counterscreen assay for PERK inhibitors: Dose response cell-based high throughput screening assay to measure inhibition of PERK at 6 hours. [Related pubchem assays: 1522, 1416 ]; assay type: functional
# T3 sequence (Q9NZJ5 whole entry): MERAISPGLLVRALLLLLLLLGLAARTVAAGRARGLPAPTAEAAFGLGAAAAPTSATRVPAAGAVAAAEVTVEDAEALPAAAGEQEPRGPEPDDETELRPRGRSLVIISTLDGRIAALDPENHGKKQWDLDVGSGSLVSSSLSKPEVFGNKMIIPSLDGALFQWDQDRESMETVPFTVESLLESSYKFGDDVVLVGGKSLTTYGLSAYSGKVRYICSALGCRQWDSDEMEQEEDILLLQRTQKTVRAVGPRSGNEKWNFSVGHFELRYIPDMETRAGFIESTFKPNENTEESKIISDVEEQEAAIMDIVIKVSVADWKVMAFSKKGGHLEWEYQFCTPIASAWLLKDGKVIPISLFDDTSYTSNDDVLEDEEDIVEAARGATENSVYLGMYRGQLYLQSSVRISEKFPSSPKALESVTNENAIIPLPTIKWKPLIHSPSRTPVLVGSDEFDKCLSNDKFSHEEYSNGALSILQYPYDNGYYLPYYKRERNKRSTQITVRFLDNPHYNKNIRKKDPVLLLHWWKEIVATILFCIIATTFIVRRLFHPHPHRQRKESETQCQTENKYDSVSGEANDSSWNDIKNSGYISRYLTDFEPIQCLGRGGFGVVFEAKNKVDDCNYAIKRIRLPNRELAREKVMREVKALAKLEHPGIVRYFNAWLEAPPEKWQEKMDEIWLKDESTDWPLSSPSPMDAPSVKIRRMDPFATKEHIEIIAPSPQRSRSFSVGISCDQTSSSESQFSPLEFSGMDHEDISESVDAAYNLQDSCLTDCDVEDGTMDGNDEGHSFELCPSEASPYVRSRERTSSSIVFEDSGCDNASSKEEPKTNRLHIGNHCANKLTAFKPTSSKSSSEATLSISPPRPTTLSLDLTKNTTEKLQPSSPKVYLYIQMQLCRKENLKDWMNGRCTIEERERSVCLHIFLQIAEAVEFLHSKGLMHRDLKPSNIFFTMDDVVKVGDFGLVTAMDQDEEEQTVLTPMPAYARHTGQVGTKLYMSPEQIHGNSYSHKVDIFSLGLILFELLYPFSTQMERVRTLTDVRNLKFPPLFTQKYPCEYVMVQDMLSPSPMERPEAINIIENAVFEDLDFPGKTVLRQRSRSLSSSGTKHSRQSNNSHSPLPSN
# [11] = target: T3, Eukaryotic translation initiation factor 2-alpha kinase 3; experiment: Dose response cell-based high-throughput screening assay to measure PERK inhibition. [Related pubchem assays: 1416 ]; assay type: functional
# [12] = target: DNA dC->dU-editing enzyme APOBEC-3A (Homo sapiens, UniProt P31941); experiment: APOBEC3A DNA deaminase inhibitors, dose response, biochemical (AID 504722); assay type: functional
# [13] = target: DNA dC->dU-editing enzyme APOBEC-3G (Homo sapiens, UniProt Q9HC16); experiment: Dose Response confirmation of small molecule APOBEC3G DNA Deaminase Inhibitors via a fluorescence-based single-stranded DNA deaminase assay. [Related pubchem assays (depositor defined):AID493012, AID493028]; assay type: functional
# [14] = target: Oxytocin receptor (Homo sapiens, UniProt P30559); experiment: Fluorescence-based cell-based high throughput dose response assay for agonists of the Oxytocin Receptor (OXTR). [Related pubchem assays: 2435 (Primary screen (OXTR agonists in singlicate)), 434991 (Counterscreen (V1R agonists in triplicate)), 2482 (Summary (OXTR agonists)), 434963 (Confirmation screen (OXTR agonists in triplicate))]; assay type: functional
# [15] = target: Vasopressin V1a receptor (Homo sapiens, UniProt P37288); experiment: Counterscreen for Oxytocin Receptor (OXTR) agonists: Fluorescence-based cell-based high throughput dose response assay to identify agonists of the vasopressin 1 receptor (V1R). [Related pubchem assays: 2435 (Primary screen (OXTR agonists in singlicate)), 434991 (Counterscreen (V1R agonists in triplicate)), 2482 (Summary (OXTR agonists)) …; assay type: functional
# [16] = test system: Streptococcus; experiment: Luminescence Microorganism-Based Dose Response Follow up to Identify Compounds Cytotoxic to Streptococcus. [Related pubchem assays: 1677 (Project Summary), 1915, 1914, 1902 (Retest at Dose), 1900 (Counter Screen), 1662 (Primary HTS)]; assay type: functional, organism-based
# [17] = target: T4, High affinity choline transporter 1 (Homo sapiens, UniProt Q9GZV3); experiment: CHT inhibitors, dose response, cell-based, 5-point CRC, membrane potential dye (AID 504840); assay type: functional
# T4 sequence (Q9GZV3 whole entry): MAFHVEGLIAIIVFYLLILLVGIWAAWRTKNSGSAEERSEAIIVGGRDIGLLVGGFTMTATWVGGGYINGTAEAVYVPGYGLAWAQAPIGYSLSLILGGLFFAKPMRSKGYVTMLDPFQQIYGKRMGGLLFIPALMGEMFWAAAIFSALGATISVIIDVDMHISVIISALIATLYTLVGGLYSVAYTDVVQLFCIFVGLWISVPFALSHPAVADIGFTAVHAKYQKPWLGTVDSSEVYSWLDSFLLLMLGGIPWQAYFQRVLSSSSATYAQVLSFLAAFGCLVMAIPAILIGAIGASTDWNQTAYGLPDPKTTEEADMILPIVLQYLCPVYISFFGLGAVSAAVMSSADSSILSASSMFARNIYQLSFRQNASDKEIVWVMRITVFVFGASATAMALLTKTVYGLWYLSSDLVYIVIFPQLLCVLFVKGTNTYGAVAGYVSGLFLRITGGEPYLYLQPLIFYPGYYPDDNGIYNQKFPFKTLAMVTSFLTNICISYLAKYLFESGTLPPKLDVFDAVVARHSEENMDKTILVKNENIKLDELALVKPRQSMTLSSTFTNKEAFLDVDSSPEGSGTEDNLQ
# [18] = HIV-1 Env-mediated cell fusion inhibitors, dose response, CCR5-tropic Env (AID 2279); assay type: functional
# [19] = target: Phospholipase A2 (Homo sapiens, UniProt P04054); assay type: functional;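 note: confirmatory dose-response counterscreen on phospholipase A2, testing hits that came from an ultra-high-throughput screen for ATG4B inhibitors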
# [20] = target: FAD-linked sulfhydryl oxidase ALR (Homo sapiens, UniProt P55789); experiment: inhibitors of human ALR sulfhydryl oxidase, dose response, biochemical, H2O2 detection, luminescence, cherry-pick (AID 493248)
# [21] = target: T5, Cysteine protease ATG4B (Homo sapiens, UniProt Q9Y4P1); assay type: functional;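 note: Fluorescence-based dose-response confirmation assay measuring inhibition of ATG4B activity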
# T5 sequence (Q9Y4P1 whole entry): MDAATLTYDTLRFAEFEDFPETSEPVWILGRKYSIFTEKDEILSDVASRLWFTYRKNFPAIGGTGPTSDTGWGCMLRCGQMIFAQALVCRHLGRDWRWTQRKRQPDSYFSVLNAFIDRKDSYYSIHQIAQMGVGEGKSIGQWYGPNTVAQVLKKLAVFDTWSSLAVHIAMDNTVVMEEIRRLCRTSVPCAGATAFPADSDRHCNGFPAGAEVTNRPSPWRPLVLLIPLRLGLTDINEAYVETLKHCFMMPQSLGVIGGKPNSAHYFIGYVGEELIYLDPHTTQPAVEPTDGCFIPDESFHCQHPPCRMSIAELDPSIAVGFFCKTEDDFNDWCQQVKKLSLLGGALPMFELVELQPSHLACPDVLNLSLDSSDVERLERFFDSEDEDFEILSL
# Intestinal-type alkaline phosphatase, sequence (P09923 whole entry, the tested form may be a part): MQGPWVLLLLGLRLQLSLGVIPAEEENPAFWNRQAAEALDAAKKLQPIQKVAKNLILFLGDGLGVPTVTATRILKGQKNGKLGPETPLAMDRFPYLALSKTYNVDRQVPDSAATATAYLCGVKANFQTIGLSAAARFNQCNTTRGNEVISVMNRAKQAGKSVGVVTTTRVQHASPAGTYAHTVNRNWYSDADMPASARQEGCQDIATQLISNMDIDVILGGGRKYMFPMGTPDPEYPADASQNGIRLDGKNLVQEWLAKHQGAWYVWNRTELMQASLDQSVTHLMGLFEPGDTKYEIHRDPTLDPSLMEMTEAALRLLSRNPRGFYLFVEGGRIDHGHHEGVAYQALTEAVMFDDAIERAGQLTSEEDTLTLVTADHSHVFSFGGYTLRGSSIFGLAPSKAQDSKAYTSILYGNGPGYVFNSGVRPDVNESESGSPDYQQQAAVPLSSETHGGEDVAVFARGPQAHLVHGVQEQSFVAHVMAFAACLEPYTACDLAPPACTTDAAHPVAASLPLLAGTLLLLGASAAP
# Oxytocin receptor, sequence (P30559 whole entry): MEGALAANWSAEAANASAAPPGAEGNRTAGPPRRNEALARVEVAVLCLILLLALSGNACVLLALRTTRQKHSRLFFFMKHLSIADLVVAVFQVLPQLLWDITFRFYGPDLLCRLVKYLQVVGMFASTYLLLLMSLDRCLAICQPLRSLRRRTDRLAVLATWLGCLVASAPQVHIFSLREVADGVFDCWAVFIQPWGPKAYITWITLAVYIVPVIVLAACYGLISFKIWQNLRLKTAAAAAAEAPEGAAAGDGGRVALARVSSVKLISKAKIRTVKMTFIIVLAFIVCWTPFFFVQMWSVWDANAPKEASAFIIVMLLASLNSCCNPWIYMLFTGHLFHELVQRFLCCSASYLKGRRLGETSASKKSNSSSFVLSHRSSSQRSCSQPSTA
# Vasopressin V1a receptor, sequence (P37288 whole entry): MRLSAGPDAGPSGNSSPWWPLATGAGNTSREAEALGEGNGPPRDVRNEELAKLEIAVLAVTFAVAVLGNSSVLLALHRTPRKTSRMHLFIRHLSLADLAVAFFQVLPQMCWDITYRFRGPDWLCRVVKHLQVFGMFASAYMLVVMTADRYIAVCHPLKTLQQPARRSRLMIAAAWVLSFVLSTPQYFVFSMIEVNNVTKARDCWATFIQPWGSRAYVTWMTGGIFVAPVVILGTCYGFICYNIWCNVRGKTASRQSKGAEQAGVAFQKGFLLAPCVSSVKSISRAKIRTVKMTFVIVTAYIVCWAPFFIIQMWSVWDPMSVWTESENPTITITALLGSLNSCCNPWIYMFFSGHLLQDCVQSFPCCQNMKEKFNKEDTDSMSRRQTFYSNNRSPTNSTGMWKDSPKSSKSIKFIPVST
# Polyadenylate-binding protein 1, sequence (P11940 whole entry): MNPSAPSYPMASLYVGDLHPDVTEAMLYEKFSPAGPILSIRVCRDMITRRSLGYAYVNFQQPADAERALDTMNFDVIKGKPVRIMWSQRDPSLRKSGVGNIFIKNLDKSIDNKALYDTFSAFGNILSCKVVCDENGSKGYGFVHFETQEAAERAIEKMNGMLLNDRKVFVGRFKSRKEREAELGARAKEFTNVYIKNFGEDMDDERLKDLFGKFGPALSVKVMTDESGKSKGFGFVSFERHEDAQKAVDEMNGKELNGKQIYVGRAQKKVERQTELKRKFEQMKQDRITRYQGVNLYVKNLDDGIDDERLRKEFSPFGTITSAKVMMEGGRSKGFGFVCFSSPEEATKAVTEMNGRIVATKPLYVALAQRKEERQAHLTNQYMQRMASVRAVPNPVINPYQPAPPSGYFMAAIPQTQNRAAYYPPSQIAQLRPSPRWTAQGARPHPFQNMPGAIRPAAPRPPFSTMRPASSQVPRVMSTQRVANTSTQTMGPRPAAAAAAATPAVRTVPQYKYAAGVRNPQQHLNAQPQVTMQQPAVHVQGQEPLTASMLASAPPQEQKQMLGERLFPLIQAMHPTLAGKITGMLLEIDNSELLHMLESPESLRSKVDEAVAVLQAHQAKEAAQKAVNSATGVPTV
# Scavenger receptor class B member 1, sequence (Q61009 whole entry): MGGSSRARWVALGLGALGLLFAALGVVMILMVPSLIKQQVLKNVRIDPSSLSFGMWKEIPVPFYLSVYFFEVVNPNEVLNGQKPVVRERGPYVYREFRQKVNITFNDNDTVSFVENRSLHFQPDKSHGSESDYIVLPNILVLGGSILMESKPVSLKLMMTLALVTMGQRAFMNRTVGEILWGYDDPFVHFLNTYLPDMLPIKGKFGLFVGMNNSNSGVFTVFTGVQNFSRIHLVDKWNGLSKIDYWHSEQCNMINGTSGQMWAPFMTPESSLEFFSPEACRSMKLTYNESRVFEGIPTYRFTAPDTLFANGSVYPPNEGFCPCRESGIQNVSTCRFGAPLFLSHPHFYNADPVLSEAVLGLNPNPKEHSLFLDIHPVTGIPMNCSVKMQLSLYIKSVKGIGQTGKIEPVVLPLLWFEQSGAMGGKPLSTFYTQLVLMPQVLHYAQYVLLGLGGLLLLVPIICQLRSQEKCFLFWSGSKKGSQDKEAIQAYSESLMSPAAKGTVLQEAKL
# Glyceraldehyde-3-phosphate dehydrogenase, sequence (P04406 whole entry): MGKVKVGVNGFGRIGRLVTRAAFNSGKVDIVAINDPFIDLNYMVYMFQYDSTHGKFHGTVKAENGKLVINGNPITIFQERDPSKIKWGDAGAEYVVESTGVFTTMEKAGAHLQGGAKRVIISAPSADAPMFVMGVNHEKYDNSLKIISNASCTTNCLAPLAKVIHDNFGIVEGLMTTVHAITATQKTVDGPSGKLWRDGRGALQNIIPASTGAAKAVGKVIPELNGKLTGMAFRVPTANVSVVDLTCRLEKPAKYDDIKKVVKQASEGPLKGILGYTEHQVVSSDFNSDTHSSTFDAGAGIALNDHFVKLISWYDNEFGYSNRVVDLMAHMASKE
# DNA dC->dU-editing enzyme APOBEC-3G, sequence (Q9HC16 whole entry): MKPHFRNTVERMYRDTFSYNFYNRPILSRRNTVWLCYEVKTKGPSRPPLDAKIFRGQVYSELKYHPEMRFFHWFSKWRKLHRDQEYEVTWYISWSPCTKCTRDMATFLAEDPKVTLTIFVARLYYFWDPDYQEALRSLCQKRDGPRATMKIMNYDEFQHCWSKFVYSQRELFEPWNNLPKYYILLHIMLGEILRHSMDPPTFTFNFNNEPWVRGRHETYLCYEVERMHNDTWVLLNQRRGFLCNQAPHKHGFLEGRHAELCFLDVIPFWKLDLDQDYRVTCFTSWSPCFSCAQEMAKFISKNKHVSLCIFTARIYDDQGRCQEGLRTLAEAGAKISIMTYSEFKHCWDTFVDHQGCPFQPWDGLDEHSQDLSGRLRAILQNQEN
# FAD-linked sulfhydryl oxidase ALR, sequence (P55789 whole entry): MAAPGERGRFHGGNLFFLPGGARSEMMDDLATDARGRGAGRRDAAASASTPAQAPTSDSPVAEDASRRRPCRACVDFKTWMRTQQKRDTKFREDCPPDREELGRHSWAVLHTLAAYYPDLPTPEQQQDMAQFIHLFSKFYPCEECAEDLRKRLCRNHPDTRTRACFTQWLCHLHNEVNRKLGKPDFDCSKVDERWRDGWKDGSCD
# DNA dC->dU-editing enzyme APOBEC-3A, sequence (P31941 whole entry): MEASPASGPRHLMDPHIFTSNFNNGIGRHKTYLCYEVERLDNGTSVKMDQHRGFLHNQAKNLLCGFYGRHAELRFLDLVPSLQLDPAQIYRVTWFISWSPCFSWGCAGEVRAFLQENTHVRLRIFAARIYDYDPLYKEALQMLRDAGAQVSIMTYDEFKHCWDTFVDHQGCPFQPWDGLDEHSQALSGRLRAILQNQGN
# Lysosomal acid glucosylceramidase, sequence (P04062 whole entry): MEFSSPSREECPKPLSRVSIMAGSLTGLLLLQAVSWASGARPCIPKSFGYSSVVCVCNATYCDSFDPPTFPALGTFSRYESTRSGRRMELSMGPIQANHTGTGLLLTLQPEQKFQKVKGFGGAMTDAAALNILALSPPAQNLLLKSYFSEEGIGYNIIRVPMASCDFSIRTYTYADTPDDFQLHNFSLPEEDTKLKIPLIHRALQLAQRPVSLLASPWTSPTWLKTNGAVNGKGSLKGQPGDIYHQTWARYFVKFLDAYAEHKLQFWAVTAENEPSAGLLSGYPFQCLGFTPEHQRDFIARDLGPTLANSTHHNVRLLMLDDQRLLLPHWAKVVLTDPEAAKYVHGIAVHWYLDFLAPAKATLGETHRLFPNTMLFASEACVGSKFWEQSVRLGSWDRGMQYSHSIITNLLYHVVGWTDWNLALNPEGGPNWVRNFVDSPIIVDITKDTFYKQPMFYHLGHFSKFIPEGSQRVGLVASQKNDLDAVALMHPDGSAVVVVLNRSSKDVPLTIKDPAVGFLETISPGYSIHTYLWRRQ
# Phospholipase A2, sequence (P04054 whole entry): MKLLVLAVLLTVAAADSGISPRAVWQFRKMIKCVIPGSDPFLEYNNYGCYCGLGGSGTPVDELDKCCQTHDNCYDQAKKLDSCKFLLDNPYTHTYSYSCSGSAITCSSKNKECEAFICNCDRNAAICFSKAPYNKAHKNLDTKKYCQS
structure (smiles),measurement,setting,value
Cc1cccc(NC(=O)CSc2ccc(-c3ccco3)nn2)c1,IC50,[1],> 100 µM (inactive)
same,IC50,[2],> 100 µM (inactive)
COc1cc([N+](=O)[O-])ccc1NC(=O)COC(=O)c1ccc2c(c1)NC(=O)CS2,IC50,[1],5.18 µM (active)
same,IC50,[2],> 100 µM (inactive)
COCc1cc(C)nc(NC2CCCCC2)c1C#N,EC50,[3],> 50 µM (not active)
NS(=O)(=O)c1ccc2[nH]c3c(c2c1)CCCC3,IC50,[4],> 100 µM (not active)
Cc1ccc(NC(=O)c2ccc3c(c2)CCN3S(C)(=O)=O)cc1C,AC50,[5],23.8 µM (active)
Cc1ccc2c(c1)nnc1nnc(SCC(=O)O)n12,IC50,[6],> 100 µM (inactive)
same,IC50,[7],10.9 µM (active)
same,EC50,[8],> 53 µM (inactive)
same,IC50,[9],9.05 µM (active)
Cc1cc(C)c(NC2=NS(=O)(=O)c3ccccc32)c(C)c1,EC50,[10],> 55.7 µM (not active)
same,EC50,[11],> 55.7 µM (not active)
Sc1nnc(COc2ccccc2)n1/N=C/c1ccncc1,IC50,[12],> 100 µM (inactive)
same,IC50,[13],3.12 µM (active)
CC(Sc1ccc(Cl)cc1)C(=O)Nc1ccc(S(=O)(=O)N2CCOCC2)cc1 (stereo not drawn),EC50,[14],> 29.9 µM (not active)
same,EC50,[15],> 29.9 µM (not active)
COC(C(=O)Nc1ccc(S(=O)(=O)Nc2ccc(F)cc2)cc1)c1ccccc1 (stereo not drawn),EC50,[14],> 29.9 µM (not active)
same,EC50,[15],> 29.9 µM (not active)
O=C(c1ccccc1C(F)(F)F)n1c2ccccc2c2ccccc21,EC50,[16],> 500 µM (not active)
Cn1cc(NC(=O)Nc2ccc(C(F)(F)F)cc2)c(C(F)(F)F)n1,EC50,[10],> 55.7 µM (not active)
same,EC50,[11],> 55.7 µM (not active)
N#Cc1cc(Oc2ccccc2)c(-n2nnc3ccccc32)cc1C#N,IC50,[6],> 100 µM (inactive)
COc1ccc(/C=C2/SC(=O)N(CCCCCC(=O)Nc3ccccc3C(=O)O)C2=S)cc1,IC50,[17],13.8 µM (active)
same,IC50,[18],> 50 µM (active)
same,IC50,[19],5.25 µM (active)
same,AC50,[20],3.05 µM (active)
same,IC50,[21],14.5 µM (active)
